In brackets after ≈: the same amount, converted by molar mass.

Experiment [1] in a line: Inhibitory activity towards microtubule disassembly relative to paclitaxel evaluated as ID50 compound/ID50 paclitaxel. The experiment is classed as functional.
Another experiment has as its system P388. In words: Cytotoxicity against P388 leukemia cells was calculated. The experiment is classed as functional, cell-based. The settings on record: Mus musculus.

`CC(=O)O[C@@]12CO[C@@H]1C[C@H](O)[C@@]1(C)C(=O)[C@H](O)C3=C(C)[C@@H](OC(=O)[C@H](O)[C@@H](NC(=O)OC(C)(C)C)c4ccccc4)C[C@@](O)([C@@H](OC(=O)c4ccccc4)[C@H]21)C3(C)C`: the ID50 ratio in experiment [1] stood at 0.6. For orientation: IC50 means the point on the concentration scale where inhibition reaches its midpoint. On to `CC(=O)O[C@@]12CO[C@@H]1C[C@H](O)[C@@]1(CO)C(=O)[C@H](O)C3=C(C)[C@@H](OC(=O)[C@H](O)[C@@H](NC(=O)OC(C)(C)C)c4ccccc4)C[C@@](O)([C@@H](OC(=O)c4ccccc4)[C@H]21)C3(C)C`, for which, in experiment [1], the ID50 ratio amounted to 0.4. In addition, in the experiment on P388, the IC50 is 0.07 µg/mL (≈ 0.085 µM).

The record behind these values is ChEMBL document CHEMBL1127767, “Synthesis of 19-hydroxy docetaxel from a novel baccatin” (Bioorg Med Chem Lett, 1994).
